Measurements from patent US11447504B2, “Macrocyclic chlorine substituted indole derivatives” (Bayer Aktiengesellschaft, priority 2017, dated 2022).
Structures can show the parent of a compound that is named as a salt. Where two headings read alike, the source gives them in different places.

Legend:
[1] = molecular target: BCL-2 (Homo sapiens (Human), UniProt P10415); experiment: Protein-protein interaction assay BCL-2/Bad BH3 peptide (BCL-2 Assay, TR-FRET); format: binding; conditions: read-out: BCL-2 Assay IC50 (median)
Procedure, shortened: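 His-BCL-2 pre-equilibrated with compound 10 min at 22° C., then incubated with Bad BH3 peptide 1 h at 22° C. in dark and overnight at 4° C.; TR-FRET ratio read.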

[2] = system: SUDHL10; experiment: Induction of caspase-3/7 activity (Assay 4), SUDHL10; format: cell-based; conditions: SUDHL10 cells
Procedure, shortened: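 Luminescent Caspase-Glo 3/7 read-out after a 3 h, 37 °C compound exposure of the DLBCL line SUDHL10. Values are background-corrected using medium-only wells.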

[3] = system: SUDHL5; experiment: Antiproliferation assay 7, SUDHL5; format: cell-based; conditions: SUDHL5 cells, CellTiter-Glo, read-out: Antiproli SUDHL5 IC50 (median)
Procedure, shortened: (§1)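 Plate cells in treatment and day 0 reference plates; read day 0 plate with CellTiter-Glo after 10 min; incubate treated plates 72 h at 37° C; read them identically.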

[4] = system: AMO-1; experiment: Antiproliferation assay 7, AMO-1; format: cell-based; conditions: AMO-1 cells, CellTiter-Glo, read-out: Antiproli AMO-1 IC50 median
Procedure, shortened: as §1

[5] = system: HMC-1-8; experiment: Antiproliferation assay 7, HMC-1-8; format: cell-based; conditions: HMC-1-8 cells, CellTiter-Glo, read-out: Antiproli HMC-1-8 IC50 median
Procedure, shortened: as §1

[6] = system: SUDHL10; experiment: Induction of cytotoxicity (Assay 6), SUDHL10
Procedure: Assay 6 Induction of Cytotoxicity Upon Treatment of Cells with Selected Compounds
Therefore, cytotoxicity assays were run in parallel in SUDHL5 and SUDHL10 cells.
The different cell lines were plated in culture medium (RPMI 1640 [GIBCO #22400-089]supplemented with 10% Fetal Bovine Serum) at a density of 3,300 cells in 30 μL/well in a sterile, solid black, flat bottom, polystyrene, TC-treated 384-well microplate (Corning #3571) using Multidrop Combi Reagent Dispenser. As a control, medium without cells was also added to the plate. Cells were incubated in a humidified incubator at 37° C. overnight. […] Rim wells were excluded. The cells were incubated for 5 hours in a humidified incubator at 37° C. After this incubation, 30 μL of CellTiter-Glo® Luminescent Cell Viability reagent (Promega, G7573) was added to each well using the Multidrop Combi Reagent Dispenser, followed by 15 minutes incubation on a shaker at room temperature. Finally, luminescence was read at 0.1 ms, with a gain of 3000 using the PHERAstar FS microplate reader (BMG Labtech).

[7] = 3 hours, Caspase-Glo 3/7, read-out: Caspase SUDHL10 EC50 (median)
[8] = read-out: Cytotox SUDHL10 IC50 (median), SUDHL10 cells, 5 hours, CellTiter-Glo

BCL-2, sequence (P10415 other isoform, or with tags, fused parts or gaps): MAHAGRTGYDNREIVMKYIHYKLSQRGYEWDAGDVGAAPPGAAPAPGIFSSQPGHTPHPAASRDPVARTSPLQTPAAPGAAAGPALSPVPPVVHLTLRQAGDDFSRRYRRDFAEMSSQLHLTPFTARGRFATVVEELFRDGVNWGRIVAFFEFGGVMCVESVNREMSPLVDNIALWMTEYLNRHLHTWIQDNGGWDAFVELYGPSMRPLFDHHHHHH

| IC50 [1] [nM] | EC50 ([2]; Homo sapiens, SU-DHL10, 3 h, Caspase-Glo 3/7, read-out: Caspase SUDHL10 EC50 (median)) [nM] | IC50 ([3]; Homo sapiens, SU-DHL-5, 72 h) [nM] | EC50 [2, 7] [nM] | IC50 ([3]; 72 hours) [nM] | Compound | IC50 ([4]; Homo sapiens, AMO1, 72 h) [nM] | IC50 ([5]; 72 h) [nM] | IC50 ([6]; Homo sapiens, SU-DHL10, 5 h, read-out: Cytotox SUDHL10 IC50 (median), SUDHL10 cells, 5 hours, CellTiter-Glo) [nM] | IC50 ([4]; 72 hours) [nM] | IC50 ([5]; 72 hours) [nM] | IC50 [6, 8] [nM] |
| --- | --- | --- | --- | --- | --- | --- | --- | --- | --- | --- | --- |
| > 20000 | 1800 | 2000 | – | – | Cc1c2c(nn1C)N(C)CCCCCn1c(C(=O)O)c(CCCOc3cccc4ccccc34)c3ccc(Cl)c-2c31 (racemic) [Example 71, (rac)-4-chloro-2,3,15-trimethyl-7-{3-[(naphthalen-1-yl)oxy]propyl}-10,11,12,13,14,15-hexahydro-2H-pyrazolo[4′,3′:4,5][1,6]diazacycloundecino[3,2,1-hi]indole-8-carboxylic acid] | 5000 | 22000 | 2700 | – | – | – |
| 19000 | – | – | 1000 | 810 | Cc1c2c(nn1C)N(C)CCCCCn1c(C(=O)O)c(CCCOc3cccc4cc(F)ccc34)c3ccc(Cl)c-2c31 (racemic) [Example 74, (rac)-4-chloro-7-{3-[(6-fluoronaphthalen-1-yl)oxy]propyl}-2,3,15-trimethyl-10,11,12,13,14,15-hexahydro-2H-pyrazolo[4′,3′:4,5][1,6]diazacycloundecino[3,2,1-hi]indole-8-carboxylic acid] | – | – | – | 1100 | 5400 | 1300 |
| > 20000 | – | 2300 | 320 | – | CCc1c2c(nn1C)N(C)CCCCCn1c(C(=O)O)c(CCCOc3cccc4cc(F)ccc34)c3ccc(Cl)c-2c31 (single isomer, unassigned; enantiomer 1) [Example 78, 4-chloro-3-ethyl-7-{3-[(6-fluoronaphthalen-1-yl)oxy]propyl}-2,15-dimethyl-10,11,12,13,14,15-hexahydro-2H-pyrazolo[4′,3′:4,5][1,6]diazacycloundecino[3,2,1-hi]indole-8-carboxylic acid-N-ethylethanamine Salt—Enantiomer 1] | – | – | – | 770 | 2400 | 700 |
| 19000 | – | – | 740 | 520 | Cc1c2c(nn1C)N(C)CCCCCn1c(C(=O)O)c(CCCOc3cccc4cc(F)ccc34)c3ccc(Cl)c-2c31 [Example 75, (+)-4-chloro-7-{3-[(6-fluoronaphthalen-1-yl)oxy]propyl}-2,3,15-trimethyl-10,11,12,13,14,15-hexahydro-2H-pyrazolo[4′,3′:4,5][1,6]diazacycloundecino[3,2,1-hi]indole-8-carboxylic acid-N-ethylethanamine salt] | – | – | – | 1100 | 3400 | 810 |
